# Experimental data reported in patent US20250154169A1, “COMPOUNDS AND METHODS FOR MODULATING SPLICING” (REMIX THERAPEUTICS INC., priority 2021, published 2025).
# Structures can show the parent of a compound that is named as a salt. Where two headings read alike, the source gives them in different places.
# Key:
# [1] = tested on: MYB mRNA; assay: Splicing RT-qPCR assay, MYB canonical (CJ) and alternative (AJ) junction mRNA; assay type: cell-based, human; conditions: Homo sapiens; for AC50: read-out: MYB AJ (AC50, increase in alternative junction mRNA)
# How it was run: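 One-step RT-qPCR on cell lysates, CJ and AJ isoforms quantified; housekeeping normalization GAPDH/GUSB (K562) or PPIA (A673). Cells: A673 in DMEM/10% FBS or K562 in IMDM/10% FBS. Compounds 11-pt 3-fold, top 10 uM, 24 h, 37 °C, 5% CO2.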
# [2] = tested on: Target C; assay: Protein abundance, HiBit-assay system (Promega), Target C; assay type: cell-based, human; conditions: Table 6; HiBiT-modified K562 cells, 24 hours
# Method: Compounds described herein were used to screen for effects on quantitative protein abundance using a HiBit assay system (Promega). Quantitative protein abundance was determined by measuring the protein levels of HiBit-tagged protein targets expressed in cell culture via luminescence using the Nano-Glo HiBiT Lytic Detection System, which uses a split complementation assay format to reconstitute NanoBiT enzyme to generate a luminescent signal. A protein abundance assay was developed such that endogenous protein targets could be modified with the HiBiT peptide tag and their abundance could be assessed after compound treatment. Briefly, K562 cell lines containing a HiBiT-modification were treated with various compounds described herein (e.g., compounds of Formulas (I) or (II)). After treatment for 24 hours, the protein abundance of a specific target was determined by measuring luminescence.
# Cells were maintained in EIDM with 10% FBS. Before the assay, cells were diluted with […] growth media (EIDM+1% FBS media) and were seeded in a 384-well plate at a density of 10000 cells/well (for each cell line listed in Table 5). Each compound was prepared as a 10-point 3-fold serial dilution in DMSO with the top dose at a final concentration of 10 μM in the well. Unmodified K562 cells were added at the previously specified density with DMSO to serve as an assay baseline and positive control (PC) and DMSO only with the respective modified cell lines was added to the negative control (NC) columns. Final DMSO concentration was kept at or below 0.25%. Treated cell plates were placed in an incubator at 37° C. with 5% CO2 for 24 hours. After 24 hours, 25 μL of Complete HiBit Lytic reagent was added to each well at room temperature (e.g. one plate requiring 10 mL Lytic Buffer, 100 μL LgBiT Protein, 200 μL Lytic Substrate), shaken for 5 minutes at 600 RPM, then left to sit for 10 minutes for signal to stabilize before reading on a Spark Cyto plate reader (Tecan) with a 500 ms measurement time.
# To determine compound effects on protein abundance of each target in Table 6, the percent response for each respective cell line was calculated at each compound concentration as follows:
# For the normalized response at each concentration, a four-parameter logistical regression was fit to the data and the response was interpolated at the 50% value to determine a concentration for protein abundance at […] the untreated control.
# [3] = Tables 4A/4B, canonical junction qPCR panel, read-out: MYB (IC50, decrease in CJ mRNA, gene panel)
# [4] = 24 h, A673 or K562 cells, 24 hours compound treatment, RT-qPCR
# [5] = 24 h, A673 or K562 cells, 24 hours compound treatment, RT-qPCR, read-out: MYB CJ (IC50, decrease in canonical junction mRNA)
# [6] = A673 or K562 cells, 24 hours compound treatment, RT-qPCR
# [7] = A673 or K562 cells, 24 hours compound treatment, RT-qPCR, read-out: MYB CJ (IC50, decrease in canonical junction mRNA)
SMILES,"IC50 [1, 3]",IC50 [2],"IC50 [1, 5]","AC50 [1, 4]","AC50 [1, 6]","IC50 [1, 7]"
Cc1cn2nc(NC(=O)c3ccc(C4CCNCC4)c4cc(C)oc34)cc(C)c2n1 [Compound 118],0.1 to 1 µM,1 to 10 µM,,,,
Cc1cn2nc(NC(=O)c3ccc(C4CCNCC4)c4ccoc34)cc(C)c2n1 [Compound 119],1 to 10 µM,> 10 µM,1 to 10 µM,1 to 10 µM,,
Cc1cn2cc(NC(=O)c3ccc(N4CCNCC4)c4nc(C)oc34)cc(F)c2n1 [Compound 140],1 to 10 µM,1 to 10 µM,,,,
Cc1cn2cc(NC(=O)c3ccc(N4CCNCC4)c4oc(C)nc34)cc(F)c2n1 [Compound 141],< 0.1 µM,1 to 10 µM,< 0.1 µM,< 0.1 µM,,
Cc1cn2cc(NC(=O)c3ccc(N4CCNCC4)c4cc(C)oc34)cc(F)c2n1 [Compound 142],0.1 to 1 µM,1 to 10 µM,0.1 to 1 µM,0.1 to 1 µM,,
"Cc1cn2cc(NC(=O)c3ccc(N4CCNCC4)c4cn(C)nc34)cc(F)c2n1 [Compound 143, N-{8-fluoro-2-methylimidazo[1,2-a]pyridin-6-yl}-2-methyl-4-(piperazin-1-yl) indazole-7-carboxamide]",< 0.1 µM,< 0.1 µM,,,,
Cc1cn2cc(NC(=O)c3ccc(C4CCNCC4)c4cc(C)oc34)cc(F)c2n1 [Compound 145],0.1 to 1 µM,1 to 10 µM,0.1 to 1 µM,0.1 to 1 µM,,
Cc1cn2nc(NC(=O)c3ccc(N4CCNCC4)c4cc(C)oc34)cc(C)c2n1 [Compound 148],1 to 10 µM,1 to 10 µM,1 to 10 µM,1 to 10 µM,,
Cc1cn2cc(NC(=O)c3ccc(C4CCNCC4)c4ccoc34)cc(F)c2n1 [Compound 149],0.1 to 1 µM,1 to 10 µM,0.1 to 1 µM,0.1 to 1 µM,,
Cc1cn2cc(NC(=O)c3ccc(N4CCN(C)CC4)c4cc(C)oc34)cc(F)c2n1 [Compound 189],0.1 to 1 µM,1 to 10 µM,0.1 to 1 µM,0.1 to 1 µM,,
Cc1cn2cc(NC(=O)c3ccc(N4CCNC(C)C4)c4cc(C)oc34)cc(F)c2n1 (centres unmarked) [Compound 190],< 0.1 µM,1 to 10 µM,< 0.1 µM,< 0.1 µM,,
"Cc1cn2cc(NC(=O)c3ccc(N4CC5NC5C4)c4cn(C)nc34)cc(F)c2n1 (centres unmarked) [Compound 563, 4-{3,6-diazabicyclo[3.1.0]hexan-3-yl}-N-{8-fluoro-2-methylimidazo[1,2-a]pyridin-6-yl}-2-methylindazole-7-carboxamide]",,0.1 to 1 µM,,,< 0.1 µM,< 0.1 µM
"Cc1cn2cc(NC(=O)c3ccc(N4C5CNCC54)c4cn(C)nc34)cc(F)c2n1 (centres unmarked) [Compound 564, 4-{3,6-diazabicyclo[3.1.0]hexan-6-yl}-N-{8-fluoro-2-methylimidazo[1,2-a]pyridin-6-yl}-2-methylindazole-7-carboxamide]",,0.1 to 1 µM,,,< 0.1 µM,< 0.1 µM

# The next lines start with results.
"IC50 [1, 3]",IC50 [2],"IC50 [1, 5]",SMILES,"AC50 [1, 4]","AC50 [1, 6]","IC50 [1, 7]"
0.1 to 1 µM,1 to 10 µM,0.1 to 1 µM,Cc1cn2cc(NC(=O)c3ccc(N4CCN(C)C(C)C4)c4cc(C)oc34)cc(F)c2n1 (centres unmarked) [Compound 191],0.1 to 1 µM,,
0.1 to 1 µM,1 to 10 µM,0.1 to 1 µM,CCC1CN(c2ccc(C(=O)Nc3cc(F)c4nc(C)cn4c3)c3oc(C)cc23)CCN1 (centres unmarked) [Compound 192],0.1 to 1 µM,,
0.1 to 1 µM,> 10 µM,0.1 to 1 µM,Cc1cn2cc(NC(=O)c3ccc(N4CCNC(C)(C)C4)c4cc(C)oc34)cc(F)c2n1 [Compound 193],0.1 to 1 µM,,
0.1 to 1 µM,> 10 µM,,Cc1cn2cc(NC(=O)c3ccc(N4CCNC5(CC5)C4)c4cc(C)oc34)cc(F)c2n1 [Compound 194],,,
0.1 to 1 µM,1 to 10 µM,0.1 to 1 µM,Cc1cn2cc(NC(=O)c3ccc(N4CC(C)(C)NC(C)(C)C4)c4cc(C)oc34)cc(F)c2n1 [Compound 195],1 to 10 µM,,
0.1 to 1 µM,1 to 10 µM,,CCNC1CCN(c2ccc(C(=O)Nc3cc(F)c4nc(C)cn4c3)c3oc(C)cc23)CC1 [Compound 196],,,
1 to 10 µM,> 10 µM,1 to 10 µM,Cc1cn2cc(NC(=O)c3ccc(N4CCC(NC(C)(C)C)CC4)c4cc(C)oc34)cc(F)c2n1 [Compound 197],1 to 10 µM,,
< 0.1 µM,> 10 µM,,CC1=CC2C(N3CCC(N(C)C)CC3)=CC=C(C(=O)Nc3cc(F)c4nc(C)cn4c3)C2O1 (centres unmarked) [Compound 198],,,
0.1 to 1 µM,> 10 µM,0.1 to 1 µM,Cc1cn2cc(NC(=O)c3ccc(N4CCN5CCCC5C4)c4cc(C)oc34)cc(F)c2n1 (centres unmarked) [Compound 199],0.1 to 1 µM,,
< 0.1 µM,0.1 to 1 µM,,Cc1cn2cc(NC(=O)c3ccc(C4CCNCC4)c4cn(C)nc34)cc(F)c2n1 [Compound 208],,,
> 10 µM,> 10 µM,> 10 µM,Cc1cc2c(N3CCNCC3)ccc(C(=O)Nc3cc(F)c4cn(C)nc4c3)c2o1 [Compound 217],> 10 µM,,
,1 to 10 µM,1 to 10 µM,"CCn1cc2c(N3CC[C@@H](NC)C3)ccc(C(=O)Nc3cc(Cl)c4nc(C)cn4c3)c2n1 [Compound 556, N-{8-chloro-2-methylimidazo[1,2-a]pyridin-6-yl}-2-ethyl-4-[(3R)-3-(methylamino)pyrrolidin-1-yl]indazole-7-carboxamide]",> 10 µM,,
,0.1 to 1 µM,< 0.1 µM,"CCn1cc2c(N3CCC(N)(CC)CC3)cc(F)c(C(=O)Nc3cc(F)c4nc(C)cn4c3)c2n1 [Compound 557, 4-(4-amino-4-ethylpiperidin-1-yl)-2-ethyl-6-fluoro-N-{8-fluoro-2-methylimidazo[1,2-a]pyridin-6-yl}indazole-7-carboxamide]",< 0.1 µM,,
,0.1 to 1 µM,< 0.1 µM,"CCn1cc2c(N3CCC(N[C@H]4C[C@@H](O)C4)CC3)ccc(C(=O)Nc3cc(F)c4nc(C)cn4c3)c2n1 [Compound 559, 2-ethyl-N-{8-fluoro-2-methylimidazo[1,2-a]pyridin-6-yl}-4-(4-{[(1s,3s)-3-hydroxycyclobutyl]amino}piperidin-1-yl) indazole-7-carboxamide]",< 0.1 µM,,
,1 to 10 µM,0.1 to 1 µM,"CCn1cc2c(N3CCC(N[C@H]4C[C@H](O)C4)CC3)ccc(C(=O)Nc3cc(F)c4nc(C)cn4c3)c2n1 [Compound 560, 2-ethyl-N-{8-fluoro-2-methylimidazo[1,2-a]pyridin-6-yl}-4-(4-{[(1r,3r)-3-hydroxycyclobutyl]amino}piperidin-1-yl) indazole-7-carboxamide]",0.1 to 1 µM,,
,> 10 µM,1 to 10 µM,"Cc1cn2cc(NC(=O)c3ccc(N4CC[C@@H](N5CCNCC5)C4)c4cn(C)nc34)cc(F)c2n1 [Compound 562, N-{8-fluoro-2-methylimidazo[1,2-a]pyridin-6-yl}-2-methyl-4-[(3R)-3-(piperazin-1-yl)pyrrolidin-1-yl]indazole-7-carboxamide hydrochloride]",1 to 10 µM,,
,> 10 µM,> 10 µM,"CCn1cc2c(N3CCNCC3)ccc(C(=O)Nc3cc(F)c4nc(C)c(F)n4c3)c2n1 [Compound 565, N-{3,8-difluoro-2-methylimidazo[1,2-a]pyridin-6-yl}-2-ethyl-4-(piperazin-1-yl) indazole-7-carboxamide; trifluoroacetic acid]",> 10 µM,,
,1 to 10 µM,0.1 to 1 µM,"CCn1cc2c(N3CCNCC3)ccc(C(=O)Nc3cn4cc(C)nc4c(Oc4ccccc4)n3)c2n1 [Compound 566, 2-ethyl-N-{2-methyl-8-phenoxyimidazo[1,2-a]pyrazin-6-yl}-4-(piperazin-1-yl) indazole-7-carboxamide]",0.1 to 1 µM,,
